Laboratory results from the NIST ThermoML archive (doi:10.1021/je900596d).

Conditions: Vibrating tube method

FC(F)=C(F)C(F)(F)F [hexafluoropropene]
Conditions	mass density [kg/m3]
357.01 K, 9852.5 kPa, Liquid	1135.74
357.01 K, 9892.6 kPa, Liquid	1136.38
357.01 K, 9933 kPa, Liquid	1137.03
357.01 K, 9973.2 kPa, Liquid	1137.69
357.06 K, 1.6 kPa, Fluid (supercritical or subcritical phases)	0.18
357.06 K, 3.4 kPa, Fluid (supercritical or subcritical phases)	0.25
357.06 K, 4.2 kPa, Fluid (supercritical or subcritical phases)	0.26
357.06 K, 4.9 kPa, Fluid (supercritical or subcritical phases)	0.29
357.06 K, 6.3 kPa, Fluid (supercritical or subcritical phases)	0.31
357.06 K, 6.6 kPa, Fluid (supercritical or subcritical phases)	0.32
357.06 K, 7 kPa, Fluid (supercritical or subcritical phases)	0.35
357.06 K, 7.4 kPa, Fluid (supercritical or subcritical phases)	0.43
357.06 K, 9.1 kPa, Fluid (supercritical or subcritical phases)	0.47
357.06 K, 9.5 kPa, Fluid (supercritical or subcritical phases)	0.49
357.06 K, 11 kPa, Fluid (supercritical or subcritical phases)	0.56
357.06 K, 12.4 kPa, Fluid (supercritical or subcritical phases)	0.6
357.06 K, 13.5 kPa, Fluid (supercritical or subcritical phases)	0.66
357.06 K, 14.9 kPa, Fluid (supercritical or subcritical phases)	0.76
357.06 K, 15.9 kPa, Fluid (supercritical or subcritical phases)	0.79
357.06 K, 17 kPa, Fluid (supercritical or subcritical phases)	0.85
357.06 K, 19.1 kPa, Fluid (supercritical or subcritical phases)	0.98
357.06 K, 21.6 kPa, Fluid (supercritical or subcritical phases)	1.08
357.06 K, 22.7 kPa, Fluid (supercritical or subcritical phases)	1.11
357.06 K, 24 kPa, Fluid (supercritical or subcritical phases)	1.15
357.06 K, 25.1 kPa, Fluid (supercritical or subcritical phases)	1.25
357.06 K, 26.3 kPa, Fluid (supercritical or subcritical phases)	1.3
357.06 K, 27.3 kPa, Fluid (supercritical or subcritical phases)	1.36
357.06 K, 28.4 kPa, Fluid (supercritical or subcritical phases)	1.4
357.06 K, 29.7 kPa, Fluid (supercritical or subcritical phases)	1.46
357.06 K, 30.8 kPa, Fluid (supercritical or subcritical phases)	1.51
357.06 K, 31.8 kPa, Fluid (supercritical or subcritical phases)	1.61
357.06 K, 34 kPa, Fluid (supercritical or subcritical phases)	1.66
357.06 K, 35.1 kPa, Fluid (supercritical or subcritical phases)	1.71
357.06 K, 36.4 kPa, Fluid (supercritical or subcritical phases)	1.75
357.06 K, 37.5 kPa, Fluid (supercritical or subcritical phases)	1.84
357.06 K, 38.5 kPa, Fluid (supercritical or subcritical phases)	1.93
357.06 K, 39.6 kPa, Fluid (supercritical or subcritical phases)	1.96
357.06 K, 40.6 kPa, Fluid (supercritical or subcritical phases)	2.02
357.06 K, 48 kPa, Fluid (supercritical or subcritical phases)	2.38
357.06 K, 58.6 kPa, Fluid (supercritical or subcritical phases)	2.86
357.06 K, 69.5 kPa, Fluid (supercritical or subcritical phases)	3.37
357.06 K, 80.9 kPa, Fluid (supercritical or subcritical phases)	3.92
357.06 K, 92.8 kPa, Fluid (supercritical or subcritical phases)	4.57
357.06 K, 104.1 kPa, Fluid (supercritical or subcritical phases)	5.19
357.06 K, 115 kPa, Fluid (supercritical or subcritical phases)	5.66
357.06 K, 125.7 kPa, Fluid (supercritical or subcritical phases)	6.22
357.06 K, 136.4 kPa, Fluid (supercritical or subcritical phases)	6.83
357.06 K, 148.3 kPa, Fluid (supercritical or subcritical phases)	7.41
357.06 K, 159.2 kPa, Fluid (supercritical or subcritical phases)	8.05
357.06 K, 170 kPa, Fluid (supercritical or subcritical phases)	8.65
357.06 K, 180.8 kPa, Fluid (supercritical or subcritical phases)	9.19
357.06 K, 191.6 kPa, Fluid (supercritical or subcritical phases)	9.77
357.06 K, 206.8 kPa, Fluid (supercritical or subcritical phases)	10.67
357.06 K, 232.7 kPa, Fluid (supercritical or subcritical phases)	11.91
357.06 K, 245.6 kPa, Fluid (supercritical or subcritical phases)	12.63
357.06 K, 258.5 kPa, Fluid (supercritical or subcritical phases)	13.31
357.06 K, 271.2 kPa, Fluid (supercritical or subcritical phases)	14.01
357.06 K, 284 kPa, Fluid (supercritical or subcritical phases)	14.69
357.06 K, 296.8 kPa, Fluid (supercritical or subcritical phases)	15.39
357.06 K, 309.5 kPa, Fluid (supercritical or subcritical phases)	16.12
357.06 K, 322.1 kPa, Fluid (supercritical or subcritical phases)	16.71
357.06 K, 334.9 kPa, Fluid (supercritical or subcritical phases)	17.44
357.06 K, 347.5 kPa, Fluid (supercritical or subcritical phases)	18.11
357.06 K, 360.2 kPa, Fluid (supercritical or subcritical phases)	18.86
357.06 K, 372.7 kPa, Fluid (supercritical or subcritical phases)	19.48
357.06 K, 385.4 kPa, Fluid (supercritical or subcritical phases)	20.16
357.06 K, 401.9 kPa, Fluid (supercritical or subcritical phases)	21.1
